In ChEMBL document CHEMBL4184144, “Design, synthesis and biological evaluation of fucose-truncated monosaccharide analogues of ipomoeassin F” (Bioorg Med Chem Lett, 2017):
The source made the active and inactive calls. No cut-off for these calls is given here.

Tests used:
Format in all cases: functional, cell-based
U-937 = assay: Antiproliferative activity against human U937 cells
MCF7 [1] = assay: Antiproliferative activity against human MCF7 cells after 72 hrs by MTT assay; details: MCF7, 72 h
MDA-MB-231 [2] = assay: Antiproliferative activity against human MDA-MB-231 cells after 72 hrs by alamarBlue assay; details: MDA-MB-231, 72 h
HeLa = assay: Antiproliferative activity against human HeLa cells
Jurkat = assay: Antiproliferative activity against human Jurkat cells
MCF7 [3] = assay: Antiproliferative activity against human MCF7 cells at 10 uM after 72 hrs by MTT assay
MDA-MB-231 [4] = assay: Antiproliferative activity against human MDA-MB-231 cells at 10 uM after 72 hrs by alamarBlue assay

IC50 (U-937) | IC50 (MCF7 [1]) | IC50 (MDA-MB-231 [2]) | IC50 (HeLa) | IC50 (Jurkat) | SMILES | Activity (MCF7 [3]) | Activity (MDA-MB-231 [4])
72.5 nM | 86.7 nM | 131 nM | 133 nM | 139 nM | C/C=C(\C)C(=O)O[C@@H]1[C@@H](O)[C@@H]2O[C@H]3[C@H](O[C@@H](CCCCC)CCCCCCC(=O)CCC(=O)OC[C@@H](O2)[C@H]1OC(=O)/C=C/c1ccccc1)O[C@H](C)[C@H](O)[C@@H]3O |  | 
 |  |  |  |  | C/C=C(\C)C(=O)O[C@@H]1[C@@H](O)[C@@H]2O[C@@H](CCCCC)CCCCCCC(=O)CCC(=O)OC[C@@H](O2)[C@H]1OC(=O)/C=C/c1ccccc1 | inactive | inactive
79.8 nM | 216 nM | 16.5 nM | 138 nM | 82.6 nM | C/C=C(\C)C(=O)O[C@@H]1[C@@H](O)[C@@H]2O[C@H]3[C@H](O[C@@H](CCCCC)CCCCCCC(=O)CCC(=O)OC[C@@H](O2)[C@H]1OC(=O)/C=C/c1ccccc1)O[C@H](C)[C@H](OC(C)=O)[C@@H]3OC(C)=O |  | 
 |  |  |  |  | C/C=C(\C)C(=O)O[C@H]1[C@@H]2O[C@@H](CCCCC)CCCCCCC(=O)CCC(=O)OC[C@@H](O2)[C@@H](O)[C@@H]1OC(=O)/C=C/c1ccccc1 | inactive | inactive
 |  |  |  |  | C/C=C(\C)C(=O)O[C@@H]1[C@@H](O)[C@@H]2OCCO[C@@H](CCCCC)CCCCCCC(=O)CCC(=O)OC[C@@H](O2)[C@H]1OC(=O)/C=C/c1ccccc1 | inactive | inactive

SMILES | IC50 (U-937) | IC50 (MCF7 [1]) | IC50 (MDA-MB-231 [2]) | IC50 (HeLa) | IC50 (Jurkat) | Activity (MCF7 [3]) | Activity (MDA-MB-231 [4])
C/C=C(\C)C(=O)O[C@@H]1[C@@H](O)[C@@H]2O[C@H]3[C@H](O[C@@H](CCCCC)CCCCCCC(=O)CCC(=O)OC[C@@H](O2)[C@H]1OC(=O)/C=C/c1ccccc1)O[C@H](C)[C@H](OC(C)=O)[C@@H]3O | 5.4 nM | 43.7 nM | 6.5 nM | 16.4 nM | 6.1 nM | Active | Active
